pIC50: −log10 of the molar value. Several values for one entry are separate records, joined by “and”; a condition that tells them apart may be missing. Equal values may be shown once. Where a name gives a salt, the structure may show the parent alone.
Legend:
[1] = tested on: Staphylococcus aureus MW2 delta-mecA (mecA-); experiment: IC50 (growth, competition assay); conditions: cefoxitin: subinhibitory
In short: (§1)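 Per plate, DsRed (540/590) and GFP (485/520) readings were normalized between the medians of the single-strain controls, after which No Treatment was fixed at 0.5. These readings came from a 1:1 mix of pre-induced fluorescent S. aureus MW2 strains with and without the resistance gene, grown for 20 h at 37 °C and 90% humidity, unshaken, in LB with a daily-set subinhibitory drug dose in 1536-well plates. Per-strain IC50 meant the dose halving the No Treatment signal, or the maximal signal.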

[2] = tested on: Staphylococcus aureus MW2 (mecA+); experiment: IC50 (growth, competition assay); conditions: cefoxitin: subinhibitory
In short: as §1

Row | Compound | pIC50 ([1]; fluorescent label: DsRed) | pIC50 ([1]; fluorescent label: GFP) | pIC50 ([2]; fluorescent label: DsRed) | pIC50 ([2]; fluorescent label: GFP)
1 | N[C@@H](C(=O)N[C@@H]1C(=O)N2C(C(=O)O)=C(Cl)CS[C@H]12)c1ccccc1 [Cefaclor (Ceclor)] | > 6.30 | > 6.30 | 5.14 | 5.14
2 | CC[C@H](C)[C@H](N)C1=N[C@H](C(=O)N[C@@H](CC(C)C)C(=O)N[C@H](CCC(=O)[O-])C(=O)N[C@H](C(=O)N[C@H]2CCCCNC(=O)[C@H](CC(N)=O)NC(=O)[C@@H](CC(=O)[O-])NC(=O)[C@H](Cc3cnc[nH]3)NC(=O)[C@@H](Cc3ccccc3)NC(=O)[C@H]([C@@H](C)CC)NC(=O)[C@@H](CCCN)NC2=O)[C@@H](C)CC)CS1.[Zn+2] [Bacitracin zinc] | 5.36 | 5.39 | 4.45 | 4.31
3 | C[C@H]1c2cccc(O)c2C(=O)C2=C(O)[C@]3(O)C(=O)C(C(N)=O)=C(O)[C@@H](N(C)C)[C@@H]3[C@@H](O)[C@@H]21 [Doxycycline HCl] | > 5.01 | > 5.01 | > 5.01 | > 5.01
4 | COc1cc(-c2ccc(/N=N/c3ccc4c(S(=O)(=O)O)cc(S(=O)(=O)O)c(N)c4c3O)c(OC)c2)ccc1/N=N/c1ccc2c(S(=O)(=O)O)cc(S(=O)(=O)O)c(N)c2c1O [CHICAGO SKY BLUE] | > 5.01 | > 5.01 | 4.60 | 4.78
5 | O=C(O)c1ccccc1Nc1cccc(C(F)(F)F)c1 [ARLEF] | > 5.01 | 4.61 | 4.77 | 4.72
6 | CN(C)c1ccc(O)c2c1C[C@H]1C[C@H]3[C@H](N(C)C)C(O)=C(C(N)=O)C(=O)[C@@]3(O)C(O)=C1C2=O [SOLODYN] | > 5.01 | > 5.01 | > 5.01 | > 5.01
7 | O=c1cc(O)cc(/C=C/c2ccc(O)c(O)c2)o1 [Hispidin] | 4.29 | 4.23 | 4.23 | 4.26
8 | CO[C@H]1/C=C/O[C@@]2(C)Oc3c(C)c(O)c4c(c3C2=O)C2=NC3(CCN(CC(C)C)CC3)NC2=C(NC(=O)/C(C)=C\C=C\[C@H](C)[C@H](O)[C@@H](C)[C@@H](O)[C@@H](C)[C@H](OC(C)=O)[C@@H]1C)C4=O [Rifabutin] | > 6.30 | > 6.30 | > 6.30 | > 6.30
9 | COc1cc(Cc2cnc(N)nc2N)cc(OC)c1OC [TRIMPEX] | > 5.01 | > 5.01 | > 5.01 | > 5.01
10 | Clc1ccc(C(Cn2ccnc2)OCc2ccsc2Cl)c(Cl)c1 (stereo not drawn) [VAGISTAT] | 4.77 | 4.82 | 4.53 | 4.51
11 | CN(C)C(=O)C(CCN1CCC(O)(c2ccc(Cl)cc2)CC1)(c1ccccc1)c1ccccc1 [Loperamide hydrochloride] | 4.50 | 4.41 | 3.99 | 3.96
12 | [O-][n+]1ccccc1[S-].[O-][n+]1ccccc1[S-].[Zn+2] [Zinc Pyrithione] | > 5.01 | > 5.01 | > 5.01 | > 5.01
13 | CC1=C(O)C(=O)C=C2C1=CC=C1[C@@]2(C)CC[C@@]2(C)[C@@H]3C[C@](C)(C(=O)O)CC[C@]3(C)CC[C@]12C [Celastrol] | > 6.30 | > 6.30 | 5.78 | 5.76
14 | O=C1NC(=O)[C@@]2(CCOc3ccc(F)cc32)N1 [Sorbinil] | > 5.01 | > 5.01 | > 5.01 | > 5.01
15 | C=C1c2c(Cl)ccc(O)c2C(=O)C2=C(O)[C@]3(O)C(=O)C(C(N)=O)=C(O)[C@@H](N(C)C)[C@@H]3[C@@H](O)[C@H]12.O=C(O)c1cc(S(=O)(=O)O)ccc1O [MECLAN] | > 5.01 | > 5.01 | > 5.01 | > 5.01
16 | CCn1cc(C(=O)O)c(=O)c2cc(F)c(N3CCNCC3)cc21 [Norfloxacin (Norxacin)] | > 6.30 | > 6.30 | 6.09 | 6.11
17 | CCOc1ccc2ccccc2c1C(=O)N[C@@H]1C(=O)N2[C@@H]1SC(C)(C)[C@@H]2C(=O)O [Nafcillin Sodium] | > 5.01 | > 5.01 | > 5.01 | > 5.01
18 | CC(=O)NC[C@H]1CN(c2ccc(N3CCOCC3)c(F)c2)C(=O)O1 [Linezolid] | > 5.01 | > 5.01 | > 5.01 | > 5.01
19 | CO[C@H]1/C=C/O[C@@]2(C)Oc3c(C)c(O)c4c(O)c(c(/C=N/N5CCN(C6CCCC6)CC5)c(O)c4c3C2=O)NC(=O)/C(C)=C\C=C\[C@H](C)[C@H](O)[C@@H](C)[C@@H](O)[C@@H](C)[C@H](OC(C)=O)[C@@H]1C [Rifapentine] | > 6.30 | > 6.30 | > 6.30 | > 6.30
20 | Cc1cc(O)c(C(=O)N[C@@H](C(=O)N[C@@H]2C(=O)N3C(C(=O)O)=C(CSc4nnnn4C)CS[C@H]23)c2ccc(O)cc2)cn1 [CEFPIRAN] | > 5.01 | > 5.01 | > 5.01 | > 5.01
21 | CCN(CC)CCOc1ccc(Nc2ncc3cc(-c4c(Cl)cccc4Cl)c(=O)n(C)c3n2)cc1 | 4.51 | 4.44 | 4.07 | 3.98
22 | O[C@@H](COc1cccc2ncccc12)CN1CCN([C@@H]2c3ccccc3[C@@H]3[C@H](c4ccccc42)C3(F)F)CC1 | 4.84 | > 5.01 | 4.28 | 4.37
23 | CC[C@H]1OC(=O)[C@H](C)C(=O)[C@H](C)[C@@H](O[C@@H]2O[C@H](C)C[C@H](N(C)C)[C@H]2O)[C@](C)(OC)C[C@@H](C)C(=O)[C@H](C)[C@H]2N(CCCCn3cnc(-c4cccnc4)c3)C(=O)O[C@]12C [KETEK] | > 5.01 | > 5.01 | > 5.01 | > 5.01
24 | CNC(=O)c1cc(Oc2ccc(NC(=O)Nc3ccc(Cl)c(C(F)(F)F)c3)cc2)ccn1 [Sorafenib] | > 5.01 | > 5.01 | > 5.01 | > 5.01
25 | CC(=O)/C=C1/C(=O)N(C)c2ccccc21 [Supercinnamaldehyde] | > 5.01 | > 5.01 | 4.33 | 4.22
26 | CC(C)N(CCC(=O)c1ccc2ccccc2c1)Cc1ccccc1 | > 5.01 | > 5.01 | > 5.01 and 4.77 | 4.85 and 4.65
27 | C=CC1=C(C(=O)O)N2C(=O)[C@@H](NC(=O)/C(=N\O)c3csc(N)n3)[C@H]2SC1 [Cefdinir (Omnicef)] | > 6.30 | > 6.30 | 5.38 | 5.44

— the supplement of paper PMC7695840
